{
  "source": "patent US11141454B2",
  "about": "“Application of earthworm protein peptide in preparation of medicine for preventing and/or treating thrombotic disease” (Zhongshiduqing (Shandong) Biotech Co., Ltd., priority 2019, dated 2021)",
  "tested_on": "carrageenan-induced rat tail thrombosis",
  "test": "Carrageenan-induced rat tail thrombosis (black tail rate and length)",
  "type": "in vivo, SD rats",
  "details": "for Black tail rates of rats (%): Aspirin group 7.72 mg/kg intragastric",
  "method": "The carrageenan was weighed and prepared into a carrageenan solution (2%) with a concentration of […] using 0.9% NaCl; rats were weighed and injected with carrageenan subcutaneously at a dose of 80 mg/kg; intragastric administration treatment was performed on a prevention group 5 days in advance; after model making for 30 min, intragastric administration treatment was performed on the remaining four groups other than the prevention group according to relevant doses, and then the rats were placed in a constant temperature environment of (18±2)° C., and free diet and water drinking were provided.\nA total of 42 SD rats were randomly selected for thrombus model making by using carrageenan. The physiological activities of the rats were observed. The normal saline was used as a blank control group, and an aspirin group was used as a positive control group. A polypeptide (the earthworm protein peptide containing four anticoagulant active polypeptides, namely Leu-Val-Thr-Leu-Gly-Asn-Glu, Leu-Leu-Ala-Pro-Pro, Leu-Leu-Pro-Ala-Pro and Thr-Val-Ala-Pro-Phe prepared in Embodiment 1) and relevant medicines were dissolved with normal saline, and the intragastric administration dose was operated according to Table 2 below. […] After injection of carrageenan in each experimental group and normal saline group, rats with different degrees of blood stasis and black tail appeared 3 to 14 hours after model making, and gradually expanded to the tail root. The measured data was processed by spss18.0 software. In order to compare the differences between different groups, one-way analysis of variance was used. […] If P was smaller than 0.05, it indicated there was significant difference. […] The test results are shown in Table 3 and Table 4 below and in FIGS. 9 to 23.",
  "data": [
    {"molecule": "CC(=O)Oc1ccccc1C(=O)O", "note": "[Aspirin, aspirin]", "values": [
      {"measurement": "Black tail rates of rats (%)", "setting": "24 h", "value": 0, "unit": "%"},
      {"measurement": "Black tail rates of rats (%)", "setting": "36 h", "value": 16.7, "unit": "%"},
      {"measurement": "Black tail rates of rats (%)", "setting": "48 h", "value": 16.7, "unit": "%"},
      {"measurement": "Black tail rates of rats (%)", "setting": "56 h", "value": 16.7, "unit": "%"},
      {"measurement": "Black tail rates of rats (%)", "setting": "72 h", "value": 50, "unit": "%"},
      {"measurement": "Black tail rates of rats (%)", "setting": "96 h", "value": 67, "unit": "%"},
      {"measurement": "black tail inhibition ratio compared with the normal saline group", "setting": "aspirin group (7.72 mg/kg), after 48 hours, FIG. 9", "value": 75.8, "unit": "%"},
      {"measurement": "length of tail thrombogenesis (black tail length)", "setting": "aspirin group (7.72 mg/kg), after 48 hours, normal saline 100.13 mm", "value": 24.24, "unit": "mm"},
      {"measurement": "number of rats with obvious black tail signs", "setting": "aspirin group, after 72 hours, FIG. 11", "value": "three"}
    ]}
  ]
}
